Test results published in patent publication US11572590B2, “Methods for evaluating tumor cell spheroids using 3D microfluidic cell culture device” (Dana-Farber Cancer Institute, Inc., priority 2017, dated 2023).
Read-outs that look alike come from different tables or passages of the source.

How the values were obtained:
Experiment in all cases: SelectScreen Kinase Profiling, single point inhibition and IC50 for off-target kinases
Type in all cases: biochemical
off-target kinases [1] = target: off-target kinases (Homo sapiens, UniProt O00443); conditions: PIK3C2A (PI3K-C2 alpha); Cmpd1 1000 μM; ATP Km app; Adapta
off-target kinases (Homo sapiens, UniProt O00443), sequence (O00443 whole entry): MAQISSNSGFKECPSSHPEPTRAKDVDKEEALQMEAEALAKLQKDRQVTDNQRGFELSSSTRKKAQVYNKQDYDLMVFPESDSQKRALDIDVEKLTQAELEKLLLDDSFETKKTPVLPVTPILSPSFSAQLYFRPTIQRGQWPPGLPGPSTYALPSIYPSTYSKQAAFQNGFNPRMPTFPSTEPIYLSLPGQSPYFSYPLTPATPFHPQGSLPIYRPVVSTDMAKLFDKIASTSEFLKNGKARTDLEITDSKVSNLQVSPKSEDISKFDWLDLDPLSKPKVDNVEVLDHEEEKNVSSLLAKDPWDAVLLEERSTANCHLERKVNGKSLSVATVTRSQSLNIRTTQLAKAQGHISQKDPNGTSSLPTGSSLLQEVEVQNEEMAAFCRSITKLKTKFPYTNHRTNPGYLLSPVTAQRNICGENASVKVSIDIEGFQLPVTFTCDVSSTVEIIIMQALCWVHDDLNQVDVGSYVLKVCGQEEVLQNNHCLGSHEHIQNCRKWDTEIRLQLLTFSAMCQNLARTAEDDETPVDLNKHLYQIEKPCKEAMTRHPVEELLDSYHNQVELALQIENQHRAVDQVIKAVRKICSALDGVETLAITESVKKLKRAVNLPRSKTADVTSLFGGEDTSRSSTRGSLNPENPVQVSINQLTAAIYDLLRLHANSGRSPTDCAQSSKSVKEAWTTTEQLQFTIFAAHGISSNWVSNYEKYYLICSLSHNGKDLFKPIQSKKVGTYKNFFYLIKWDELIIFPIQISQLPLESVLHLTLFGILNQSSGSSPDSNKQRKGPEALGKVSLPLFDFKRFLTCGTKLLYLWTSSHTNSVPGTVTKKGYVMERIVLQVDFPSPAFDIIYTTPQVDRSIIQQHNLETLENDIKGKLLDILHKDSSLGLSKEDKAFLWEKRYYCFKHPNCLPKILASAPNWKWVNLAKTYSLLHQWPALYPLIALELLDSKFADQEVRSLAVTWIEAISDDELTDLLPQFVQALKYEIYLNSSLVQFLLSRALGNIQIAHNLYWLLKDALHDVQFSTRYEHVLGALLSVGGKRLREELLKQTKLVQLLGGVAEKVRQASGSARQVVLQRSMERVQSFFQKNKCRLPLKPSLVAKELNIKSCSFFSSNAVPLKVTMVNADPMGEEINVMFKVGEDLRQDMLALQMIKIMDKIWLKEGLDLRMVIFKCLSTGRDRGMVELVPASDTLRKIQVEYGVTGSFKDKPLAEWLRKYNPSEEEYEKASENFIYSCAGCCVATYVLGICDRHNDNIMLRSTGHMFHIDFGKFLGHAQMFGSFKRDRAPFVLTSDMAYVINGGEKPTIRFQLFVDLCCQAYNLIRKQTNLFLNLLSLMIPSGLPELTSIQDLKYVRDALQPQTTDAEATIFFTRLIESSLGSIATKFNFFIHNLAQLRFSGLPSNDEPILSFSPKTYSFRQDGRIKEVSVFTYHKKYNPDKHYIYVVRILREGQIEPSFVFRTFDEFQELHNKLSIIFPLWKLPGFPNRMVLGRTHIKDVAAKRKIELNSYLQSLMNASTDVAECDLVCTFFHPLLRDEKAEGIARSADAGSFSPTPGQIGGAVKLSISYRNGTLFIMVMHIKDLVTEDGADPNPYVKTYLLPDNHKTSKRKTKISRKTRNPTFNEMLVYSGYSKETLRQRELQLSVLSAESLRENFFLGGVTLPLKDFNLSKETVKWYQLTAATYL

off-target kinases [2] = target: off-target kinases (Homo sapiens, UniProt P07949); conditions: RET, ATP Km app, ZLYTE
off-target kinases [3] = target: off-target kinases (Homo sapiens, UniProt P31749); conditions: AKT1 (PKB alpha), ZLYTE, ATP Km app
off-target kinases (Homo sapiens, UniProt P31749), sequence (P31749 whole entry): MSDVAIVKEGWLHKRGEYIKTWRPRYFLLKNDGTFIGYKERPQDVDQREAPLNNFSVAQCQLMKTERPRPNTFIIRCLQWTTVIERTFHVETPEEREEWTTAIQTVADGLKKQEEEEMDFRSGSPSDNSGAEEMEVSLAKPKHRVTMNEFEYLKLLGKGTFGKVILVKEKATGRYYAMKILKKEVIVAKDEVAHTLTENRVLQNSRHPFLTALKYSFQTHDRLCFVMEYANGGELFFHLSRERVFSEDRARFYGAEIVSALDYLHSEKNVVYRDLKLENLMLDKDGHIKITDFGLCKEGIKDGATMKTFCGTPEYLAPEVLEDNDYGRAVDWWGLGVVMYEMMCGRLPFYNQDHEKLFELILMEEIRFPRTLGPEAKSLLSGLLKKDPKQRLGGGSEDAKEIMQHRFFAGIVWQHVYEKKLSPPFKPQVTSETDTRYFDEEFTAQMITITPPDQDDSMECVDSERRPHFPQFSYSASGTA

off-target kinases [4] = target: off-target kinases (Homo sapiens, UniProt P42356); conditions: PI4KA (PI4K alpha), Adapta, ATP 10
off-target kinases (Homo sapiens, UniProt P42356), sequence (P42356 whole entry): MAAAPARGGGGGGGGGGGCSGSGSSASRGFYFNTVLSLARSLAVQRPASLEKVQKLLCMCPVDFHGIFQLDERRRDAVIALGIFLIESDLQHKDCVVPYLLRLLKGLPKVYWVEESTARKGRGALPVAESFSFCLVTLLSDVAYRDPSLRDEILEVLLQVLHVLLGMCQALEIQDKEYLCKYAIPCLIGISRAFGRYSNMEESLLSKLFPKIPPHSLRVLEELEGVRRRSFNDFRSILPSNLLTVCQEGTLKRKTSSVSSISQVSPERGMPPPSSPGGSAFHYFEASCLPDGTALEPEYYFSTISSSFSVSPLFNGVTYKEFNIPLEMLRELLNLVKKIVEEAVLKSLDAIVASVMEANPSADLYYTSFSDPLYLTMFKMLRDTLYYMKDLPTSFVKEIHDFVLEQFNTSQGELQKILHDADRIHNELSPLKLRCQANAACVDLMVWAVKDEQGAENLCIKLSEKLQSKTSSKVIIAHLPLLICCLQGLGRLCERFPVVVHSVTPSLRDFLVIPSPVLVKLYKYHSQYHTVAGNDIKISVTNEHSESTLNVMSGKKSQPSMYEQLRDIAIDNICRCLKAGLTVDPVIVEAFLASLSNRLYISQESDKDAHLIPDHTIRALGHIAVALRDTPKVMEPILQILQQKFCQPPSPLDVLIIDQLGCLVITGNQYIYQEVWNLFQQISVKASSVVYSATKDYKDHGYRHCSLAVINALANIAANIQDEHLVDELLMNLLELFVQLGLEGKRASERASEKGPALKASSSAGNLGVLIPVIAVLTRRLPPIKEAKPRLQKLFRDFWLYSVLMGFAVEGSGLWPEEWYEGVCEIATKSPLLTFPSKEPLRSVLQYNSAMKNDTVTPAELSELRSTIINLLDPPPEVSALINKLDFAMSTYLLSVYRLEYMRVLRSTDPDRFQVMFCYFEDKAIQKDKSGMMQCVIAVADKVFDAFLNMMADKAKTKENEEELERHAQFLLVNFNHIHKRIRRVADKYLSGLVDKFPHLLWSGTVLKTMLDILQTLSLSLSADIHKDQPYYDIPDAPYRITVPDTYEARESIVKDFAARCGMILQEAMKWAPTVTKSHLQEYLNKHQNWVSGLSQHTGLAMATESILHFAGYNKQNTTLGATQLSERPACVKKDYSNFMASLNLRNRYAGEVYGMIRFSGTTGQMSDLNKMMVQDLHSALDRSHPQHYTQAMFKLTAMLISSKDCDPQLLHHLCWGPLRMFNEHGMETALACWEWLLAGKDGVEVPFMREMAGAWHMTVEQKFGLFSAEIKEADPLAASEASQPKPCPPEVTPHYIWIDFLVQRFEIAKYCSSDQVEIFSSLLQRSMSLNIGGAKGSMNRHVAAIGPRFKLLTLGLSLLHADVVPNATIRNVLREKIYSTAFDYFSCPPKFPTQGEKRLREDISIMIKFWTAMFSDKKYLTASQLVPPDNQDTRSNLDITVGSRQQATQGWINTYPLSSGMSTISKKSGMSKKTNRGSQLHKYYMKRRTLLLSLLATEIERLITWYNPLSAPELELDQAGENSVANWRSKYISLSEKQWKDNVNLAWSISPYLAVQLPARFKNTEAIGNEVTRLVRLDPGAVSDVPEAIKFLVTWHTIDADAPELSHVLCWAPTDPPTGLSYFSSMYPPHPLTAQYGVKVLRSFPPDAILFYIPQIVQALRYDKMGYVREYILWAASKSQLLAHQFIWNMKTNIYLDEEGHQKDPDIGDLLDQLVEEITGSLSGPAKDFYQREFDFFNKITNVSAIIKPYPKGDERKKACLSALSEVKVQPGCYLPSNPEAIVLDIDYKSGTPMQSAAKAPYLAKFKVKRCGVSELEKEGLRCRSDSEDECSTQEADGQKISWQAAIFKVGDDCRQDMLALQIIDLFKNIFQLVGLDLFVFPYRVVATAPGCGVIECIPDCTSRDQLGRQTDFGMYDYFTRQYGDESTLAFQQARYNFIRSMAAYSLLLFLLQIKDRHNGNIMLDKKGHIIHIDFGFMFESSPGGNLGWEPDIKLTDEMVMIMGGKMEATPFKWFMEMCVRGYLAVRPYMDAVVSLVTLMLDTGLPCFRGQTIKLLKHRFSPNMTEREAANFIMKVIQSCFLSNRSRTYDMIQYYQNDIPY

off-target kinases [5] = target: off-target kinases (Homo sapiens, UniProt P43405); conditions: SYK, 1000 μM, ATP Km app, ZLYTE
off-target kinases [6] = target: off-target kinases (Homo sapiens, UniProt Q05397); conditions: PTK2 (FAK), ZLYTE, ATP Km app
off-target kinases [7] = target: off-target kinases (Homo sapiens, UniProt Q06187); conditions: BTK, ZLYTE, ATP Km app
off-target kinases (Homo sapiens, UniProt Q06187), sequence (Q06187 whole entry): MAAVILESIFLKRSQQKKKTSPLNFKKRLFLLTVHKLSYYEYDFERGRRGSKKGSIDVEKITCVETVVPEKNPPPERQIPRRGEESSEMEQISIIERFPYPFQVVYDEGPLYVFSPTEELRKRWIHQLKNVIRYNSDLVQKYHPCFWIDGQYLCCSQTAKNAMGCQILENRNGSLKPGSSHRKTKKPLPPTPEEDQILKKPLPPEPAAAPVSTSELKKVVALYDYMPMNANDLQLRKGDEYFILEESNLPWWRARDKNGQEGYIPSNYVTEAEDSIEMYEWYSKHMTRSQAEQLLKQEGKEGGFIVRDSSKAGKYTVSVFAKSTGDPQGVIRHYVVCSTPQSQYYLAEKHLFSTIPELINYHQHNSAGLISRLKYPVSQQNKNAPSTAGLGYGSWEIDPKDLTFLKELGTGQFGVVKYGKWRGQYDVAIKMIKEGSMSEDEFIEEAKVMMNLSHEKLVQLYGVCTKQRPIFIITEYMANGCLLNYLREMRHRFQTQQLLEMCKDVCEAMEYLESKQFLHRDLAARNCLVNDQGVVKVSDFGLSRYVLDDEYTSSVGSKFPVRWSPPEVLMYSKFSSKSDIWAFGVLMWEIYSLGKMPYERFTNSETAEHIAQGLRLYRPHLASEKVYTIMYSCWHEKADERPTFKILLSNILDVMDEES

off-target kinases [8] = target: T1, off-target kinases (Homo sapiens, UniProt Q96BR1); conditions: SGKL (SGK3), ZLYTE, ATP Km app
T1 sequence (Q96BR1 1-496): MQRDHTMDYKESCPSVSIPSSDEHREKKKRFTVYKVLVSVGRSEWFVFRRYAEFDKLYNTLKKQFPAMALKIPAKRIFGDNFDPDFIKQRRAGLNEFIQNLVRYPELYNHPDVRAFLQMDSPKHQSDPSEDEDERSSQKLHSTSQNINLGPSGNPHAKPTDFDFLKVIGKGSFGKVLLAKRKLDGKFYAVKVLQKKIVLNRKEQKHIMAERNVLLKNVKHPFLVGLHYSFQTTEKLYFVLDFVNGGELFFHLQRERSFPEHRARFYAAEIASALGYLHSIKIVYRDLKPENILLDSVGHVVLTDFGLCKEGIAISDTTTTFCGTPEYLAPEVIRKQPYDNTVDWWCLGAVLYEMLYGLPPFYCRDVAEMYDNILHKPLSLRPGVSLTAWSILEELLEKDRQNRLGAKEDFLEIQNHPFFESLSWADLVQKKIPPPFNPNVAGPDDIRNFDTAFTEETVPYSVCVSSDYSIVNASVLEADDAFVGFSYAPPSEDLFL

In the case of `N#Cc1cc(-c2ncnc(Nc3ccc(N4CCN(C5COC5)CC4)cc3)n2)ccc1OC1CCOCC1` [Compound 1, 5-(4-((4-(4-(oxetan-3-yl)piperazin-1-yl)phenyl)amino)-1,3,5-triazin-2-yl)-2-((tetrahydro-2H-pyran-4-yl)oxy)benzonitrile], the “% Inhibition 1” value (off-target kinases [1]) is reported as −7%, the “% Inhibition 2” value (off-target kinases [1]) is reported as −9% and the “% Inhibition Avg” value (off-target kinases [1]) is reported as −8%. The inhibition (off-target kinases [2]; read-out: % Inhibition 1) was 46%, the inhibition (off-target kinases [2]; read-out: % Inhibition 2) was 42% and the inhibition (off-target kinases [2]; read-out: % Inhibition Avg) was 44%. The inhibition (off-target kinases [3]; read-out: % Inhibition 1) was 1%, the inhibition (off-target kinases [3]; read-out: % Inhibition 2) was 3% and the inhibition (off-target kinases [3]; read-out: % Inhibition Avg) was 2%. For the same compound, the inhibition (off-target kinases [4]; read-out: % Inhibition 1) was 3%, the inhibition (off-target kinases [4]; read-out: % Inhibition 2) was -3% and the inhibition (off-target kinases [4]; read-out: % Inhibition Avg) was 0%. It also gave an inhibition at 1000 µM (off-target kinases [5]; read-out: % Inhibition 1) of 44%, an inhibition at 1000 µM (off-target kinases [5]; read-out: % Inhibition 2) of 49% and an inhibition at 1000 µM (off-target kinases [5]; read-out: % Inhibition Avg) of 46%. For the same compound, the inhibition (off-target kinases [6]; read-out: % Inhibition 1) was 0%, the inhibition (off-target kinases [6]; read-out: % Inhibition 2) was 2% and the inhibition (off-target kinases [6]; read-out: % Inhibition Avg) was 1%. The inhibition (off-target kinases [7]; read-out: % Inhibition 1) was 3%, the inhibition (off-target kinases [7]; read-out: % Inhibition 2) was 6% and the inhibition (off-target kinases [7]; read-out: % Inhibition Avg) was 5%. The inhibition (off-target kinases [8]; read-out: % Inhibition 1) was 3%, the inhibition (off-target kinases [8]; read-out: % Inhibition 2) was 4% and the inhibition (off-target kinases [8]; read-out: % Inhibition Avg) was 3%.
